In brackets after ≈: the same amount, converted by molar mass.
Legend:
[1] = tested on: M. tuberculosis H37Rv; assay: MIC, agar (7H11) dilution method; assay type: cell-based; conditions: M. tuberculosis H37Rv
[2] = tested on: M. tuberculosis Kurono; assay: MIC, agar (7H11) dilution method; assay type: cell-based; conditions: M. tuberculosis Kurono; agar (7H11) dilution
[3] = tested on: M. bovis BCG Tokyo; assay: microbe, parasite or virus in culture; assay type: cell-based; conditions: M. bovis BCG Tokyo; agar (7H11) dilution
[4] = tested on: M. avium Flamingo; assay: MIC, agar (7H11) dilution method; assay type: cell-based
[5] = tested on: M. intracellularae ATCC 15984; assay: MIC, agar (7H11) dilution method; assay type: cell-based
[6] = tested on: M. kansasii NIHJ1619; assay: MIC, agar (7H11) dilution method; assay type: cell-based
[7] = tested on: M. aurum; assay: MIC, agar (7H11) dilution method; assay type: cell-based
[8] = tested on: M. fortuitum NIHJ1615; assay: MIC, agar (7H11) dilution method; assay type: cell-based
[9] = tested on: M. smegmatis Takeo; assay: MIC, agar (7H11) dilution method; assay type: cell-based
[10] = tested on: S. aureus ATCC 29213; assay: MIC, other bacteria (Table 3); assay type: cell-based; conditions: inoculum size 10^6 CFU/ml
[11] = tested on: S. aureus ATCC 43300 (MRSA); assay: MIC, other bacteria (Table 3); assay type: cell-based; conditions: inoculum size 10^6 CFU/ml
[12] = tested on: VRSA 2441-T0041; assay: MIC, other bacteria (Table 3); assay type: cell-based, S. aureus; conditions: VRSA 2441-T0041, low level VCM-resistant; inoculum size 10^6 CFU/ml
[13] = tested on: VRSA 2441-T0044; assay: MIC, other bacteria (Table 3); assay type: cell-based, S. aureus; conditions: VRSA 2441-T0044, low level VCM-resistant; inoculum size 10^6 CFU/ml
[14] = tested on: MRSA 2441-05104; assay: MIC, other bacteria (Table 3); assay type: cell-based, S. aureus; conditions: inoculum size 10^6 CFU/ml
[15] = tested on: MRSA 2441-05112; assay: MIC, other bacteria (Table 3); assay type: cell-based, S. aureus; conditions: inoculum size 10^6 CFU/ml
[16] = tested on: MRSA 2441-05129; assay: MIC, other bacteria (Table 3); assay type: cell-based, S. aureus; conditions: inoculum size 10^6 CFU/ml
[17] = tested on: MRSA 2441-05223; assay: MIC, other bacteria (Table 3); assay type: cell-based, S. aureus; conditions: inoculum size 10^6 CFU/ml
[18] = tested on: MRSA 2441-05254; assay: MIC, other bacteria (Table 3); assay type: cell-based, S. aureus; conditions: inoculum size 10^6 CFU/ml
[19] = tested on: MRSA 2441-05262; assay: MIC, other bacteria (Table 3); assay type: cell-based, S. aureus; conditions: inoculum size 10^6 CFU/ml
[20] = tested on: S. epidermidis ATCC 12228; assay: MIC, other bacteria (Table 3); assay type: cell-based; conditions: inoculum size 10^6 CFU/ml
[21] = tested on: MRSE 2442-05030; assay: MIC, other bacteria (Table 3); assay type: cell-based, S. epidermidis; conditions: inoculum size 10^6 CFU/ml
[22] = tested on: MRSE 2442-05047; assay: MIC, other bacteria (Table 3); assay type: cell-based, S. epidermidis; conditions: inoculum size 10^6 CFU/ml
[23] = tested on: MRSE 2442-05053; assay: MIC, other bacteria (Table 3); assay type: cell-based, S. epidermidis; conditions: inoculum size 10^6 CFU/ml
[24] = tested on: MRSE 2442-05060; assay: MIC, other bacteria (Table 3); assay type: cell-based, S. epidermidis; conditions: inoculum size 10^6 CFU/ml
[25] = tested on: MRSE 2442-05110; assay: MIC, other bacteria (Table 3); assay type: cell-based, S. epidermidis; conditions: inoculum size 10^6 CFU/ml
[26] = tested on: MRSE 2442-05118; assay: MIC, other bacteria (Table 3); assay type: cell-based, S. epidermidis; conditions: inoculum size 10^6 CFU/ml
[27] = tested on: E. faecalis ATCC 29212; assay: MIC, other bacteria (Table 3); assay type: cell-based; conditions: inoculum size 10^6 CFU/ml
[28] = tested on: E. faecalis ATCC 51299 (VRE); assay: MIC, other bacteria (Table 3); assay type: cell-based; conditions: low level VCM-resistant, Van B, inoculum size 10^6 CFU/ml
[29] = tested on: E. faecalis NCTC 12201 (VRE); assay: MIC, other bacteria (Table 3); assay type: cell-based; conditions: high level VCM-resistant, Van A, inoculum size 10^6 CFU/ml
[30] = tested on: E. faecium ATCC 49224; assay: MIC, other bacteria (Table 3); assay type: cell-based; conditions: E. faecium ATCC 49224, GM-resistant; inoculum size 10^6 CFU/ml
[31] = tested on: E. faecium NCTC 12203 (VRE); assay: MIC, other bacteria (Table 3); assay type: cell-based; conditions: high level VCM-resistant, Van A, inoculum size 10^6 CFU/ml
[32] = tested on: E. coli ATCC 25922; assay: MIC, other bacteria (Table 3); assay type: cell-based; conditions: inoculum size 10^6 CFU/ml
[33] = tested on: K. pneumoniae ATCC 27736; assay: MIC, other bacteria (Table 3); assay type: cell-based; conditions: inoculum size 10^6 CFU/ml
[34] = tested on: P. mirabilis ATCC 4630; assay: MIC, other bacteria (Table 3); assay type: cell-based; conditions: inoculum size 10^6 CFU/ml
[35] = tested on: S. marsascens ATCC 14756; assay: MIC, other bacteria (Table 3); assay type: cell-based; conditions: inoculum size 10^6 CFU/ml
[36] = tested on: P. aeruginosa ATCC 27853; assay: MIC, other bacteria (Table 3); assay type: cell-based; conditions: inoculum size 10^6 CFU/ml

Row | Structure (SMILES) | MIC [10] [µg/mL] | MIC [11] [µg/mL] | MIC [12] [µg/mL] | MIC [13] [µg/mL] | MIC [14] [µg/mL] | MIC [15] [µg/mL] | MIC [16] [µg/mL] | MIC [17] [µg/mL] | MIC [18] [µg/mL] | MIC [19] [µg/mL] | MIC [20] [µg/mL] | MIC [21] [µg/mL] | MIC [22] [µg/mL] | MIC [23] [µg/mL] | MIC [24] [µg/mL] | MIC [25] [µg/mL] | MIC [26] [µg/mL] | MIC [27] [µg/mL] | MIC [28] [µg/mL] | MIC [29] [µg/mL] | also measured
1 | C=CCN(C)CCCCCCCCOc1ccc(C(=O)c2ccc(Cl)cc2)c(Cl)c1 [Cpd #20] | 25 (≈ 55.7 µM) | 25 (≈ 55.7 µM) | 50 (≈ 111 µM) | 50 (≈ 111 µM) | 25 (≈ 55.7 µM) | 25 (≈ 55.7 µM) | 25 (≈ 55.7 µM) | 25 (≈ 55.7 µM) | 25 (≈ 55.7 µM) | 25 (≈ 55.7 µM) | 25 (≈ 55.7 µM) | 12.5 (≈ 27.9 µM) | 12.5 (≈ 27.9 µM) | 12.5 (≈ 27.9 µM) | 12.5 (≈ 27.9 µM) | 12.5 (≈ 27.9 µM) | 12.5 (≈ 27.9 µM) | 12.5 (≈ 27.9 µM) | 25 (≈ 55.7 µM) | 12.5 (≈ 27.9 µM) | Minimum inhibitory concentrations (MIC) ([1]; table line r7 (1st of 5 so labelled)): 6.25 µg/mL (≈ 13.9 µM); Minimum inhibitory concentrations (MIC) ([1]; table line r8 (2nd of 5 so labelled)): 6.25 µg/mL (≈ 13.9 µM); Minimum inhibitory concentrations (MIC) ([1]; table line r9 (3rd of 5 so labelled)): 6.25 µg/mL (≈ 13.9 µM); Minimum inhibitory concentrations (MIC) ([1]; table line r10 (4th of 5 so labelled)): 6.25 µg/mL (≈ 13.9 µM); Minimum inhibitory concentrations (MIC) ([1]; table line r11 (5th of 5 so labelled)): 6.25 µg/mL (≈ 13.9 µM); Minimum inhibitory concentrations (MIC) [2]: 6.25 µg/mL (≈ 13.9 µM); Minimum inhibitory concentrations (MIC) [3]: 6.25 µg/mL (≈ 13.9 µM); Minimum inhibitory concentrations (MIC) [4]: 12.5 µg/mL (≈ 27.9 µM); Minimum inhibitory concentrations (MIC) [5]: 12.5 µg/mL (≈ 27.9 µM); Minimum inhibitory concentrations (MIC) [6]: 12.5 µg/mL (≈ 27.9 µM); Minimum inhibitory concentrations (MIC) [7]: 12.5 µg/mL (≈ 27.9 µM); Minimum inhibitory concentrations (MIC) [8]: >25 µg/mL; Minimum inhibitory concentrations (MIC) [9]: 25 µg/mL (≈ 55.7 µM); MIC [30]: 12.5 µg/mL (≈ 27.9 µM); MIC [31]: 12.5 µg/mL (≈ 27.9 µM); MIC [32]: >100 µg/mL; MIC [33]: >100 µg/mL; MIC [34]: >100 µg/mL; MIC [35]: >100 µg/mL; MIC [36]: >100 µg/mL
2 | COc1cccc(OC)c1C(=O)N[C@@H]1C(=O)N2[C@@H]1SC(C)(C)[C@@H]2C(=O)O [DMPPC, reference compound] | 1.56 (≈ 4.1 µM) | 3.13 (≈ 8.23 µM) | >400 | >400 | 100 (≈ 263 µM) | 400 (≈ 1050 µM) | >400 | 125 (≈ 329 µM) | >400 | >400 | 1.56 (≈ 4.1 µM) | 1.56 (≈ 4.1 µM) | 400 (≈ 1050 µM) | 3.13 (≈ 8.23 µM) | 200 (≈ 526 µM) | 3.13 (≈ 8.23 µM) | 200 (≈ 526 µM) | 25 (≈ 65.7 µM) | 50 (≈ 131 µM) | 100 (≈ 263 µM) | MIC [30]: >400 µg/mL; MIC [31]: >400 µg/mL; MIC [32]: >400 µg/mL; MIC [33]: >400 µg/mL; MIC [34]: >400 µg/mL; MIC [35]: >400 µg/mL; MIC [36]: >400 µg/mL

Source: patent US8884061B2, “Compositions and methods of use of electron transport system inhibitors” (priority 2006, dated 2014)
